Experimental data published in patent US9605027B2, “Polypeptides that bound to IL-23 receptor and inhibit binding of IL-23 and cell signaling thereof” (Medical Diagnostic Laboratories, LLC, priority 2011, dated 2017).
Entries after “also recorded” stand apart in the source; their conditions may differ. Like-named read-outs stand apart in the source and are kept apart here. Peptide text beside a SMILES is read from it.

Experiments:
[1] = target: IL-23R pathway in STAT3-Luc reporter DB cells (Homo sapiens, UniProt Q5VWK5); experiment: Cell-based STAT3-Luc reporter DB cell assay (DB-Luc), inhibition of IL-23
IL-23R pathway in STAT3-Luc reporter DB cells, sequence (Q5VWK5 24-629 limits assumed): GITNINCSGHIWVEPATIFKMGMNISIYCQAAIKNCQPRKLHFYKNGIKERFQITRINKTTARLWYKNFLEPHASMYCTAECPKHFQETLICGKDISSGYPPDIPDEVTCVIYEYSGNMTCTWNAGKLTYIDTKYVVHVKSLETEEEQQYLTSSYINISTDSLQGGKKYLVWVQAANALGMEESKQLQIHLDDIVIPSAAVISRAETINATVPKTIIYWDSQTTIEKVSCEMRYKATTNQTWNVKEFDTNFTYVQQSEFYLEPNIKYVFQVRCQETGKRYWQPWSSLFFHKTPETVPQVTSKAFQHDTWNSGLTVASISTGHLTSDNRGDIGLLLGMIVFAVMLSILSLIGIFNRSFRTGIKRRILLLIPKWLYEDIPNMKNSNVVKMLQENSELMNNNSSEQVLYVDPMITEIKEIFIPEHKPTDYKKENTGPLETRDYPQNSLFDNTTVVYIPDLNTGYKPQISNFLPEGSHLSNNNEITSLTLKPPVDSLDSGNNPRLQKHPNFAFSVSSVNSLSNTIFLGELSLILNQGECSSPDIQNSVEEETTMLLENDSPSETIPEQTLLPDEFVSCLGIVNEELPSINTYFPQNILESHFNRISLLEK
Description: (§1) The Cignal STAT3 reporter (SA Biosciences, CCS-9028L), designed to measure the transcriptional activity of STAT3 homodimers, was transiently transfected into the DB cells. The stably transfected STAT3-Luc reporter clone was selected using 200 ng/ml of Hygromycin B.
The stably transfected STAT3-Luc reporter DB cells (0.5×10^6) were cultured in 100 μl of RPMI+10% FBS. IL-23 was added to the cells and incubated at 37° C. for 4 hours. Luciferase activity was measured using Dual-Glo luciferase assay system (Promega).
The isolated cyclic polypeptide no. 23.15-Fc fusion protein and cyclic polypeptide no. 23.19 were used in a cell-based assay to measure the IC50 values. The stably transfected STAT3-Luc reporter DB cells (0.5×10^6) were cultured in 100 μl of RPMI+10% FBS. The cells were pre-incubated with different concentration of isolated cyclic polypeptide no. 23.15-Fc fusion protein or polypeptide no. 23.19 for 30 minutes at 37° C. 50 ng/ml of IL-23 was added to the cells and incubated at 37° C. for an additional 4 hours. Luciferase activity was measured using Dual-Glo luciferase assay system (Promega). The IC50 values of isolated cyclic polypeptide no. 23.15-Fc fusion protein and cyclic polypeptide no. 23.19 are 2.5 μM and 2.5 μM respectively.
The isolated peptide no. 7 (SEQ ID NO: 156) and peptide no. 23.19 (SEQ ID NO: 130) (it is a cyclic version of the polypeptide no. 23.15) were used in a cell based assay to compare their inhibitory activity. The stably transfected STAT3-Luc reporter DB cells (0.5×10^6) were cultured in 100 μl of RPMI+10% FBS. The cells were pre-incubated with two different concentrations (10 μM and 2 μM) of isolated peptides for 30 minutes at 37° C. 50 ng/ml of IL-23 was added to the cells and incubated at 37° C. for an additional 4 hours. Luciferase activity was measured using Dual-Glo luciferase assay system (Promega). The inhibitory activity of isolated peptide no. 7 (SEQ ID NO: 156) is better than that of peptide no. 23.19 (SEQ ID NO: 130) (a cyclic version of polypeptide no. 23.15 (SEQ ID NO: 126) (See, FIG. 62).
DB cells express IL-23R on the cell surface. In addition, IL-23 stimulated the DB cells through the activation of STAT3 by phosphorylation (p-STAT3) (Example 7 (Figures. 14 and 15)). Based on these observations, DB cells were used to develop a cell-based assay to measure the inhibitory activity of peptide and peptide-Fc fusion protein in the IL-23R pathway. […]
as §1, with “CCS-9028L), which is” for “CCS-9028L),”, “B. The activity of IL-23R pathway can be measured by the transcriptional activity of STAT3 homodimers. […]” for “B.”

[2] = tested on: IL-23 induced IL-17F production in human Th17 cells; experiment: IL-17F production induced by IL-23 in in vitro differentiated human Th17 cells; format: cell-based; details: IL-23 1 ng/ml, peptide 0-10 μM, ELISA; read-out: IC50, inhibition of IL-17F production
Description: To that end, we designed and performed an in vitro assay using human differentiated Th17 cells. CD4+ naive T cells were negatively enriched using a human CD4+ naive T cells enrichment kit (StemCell Technologies, Catalog #19155). The purity of enriched CD4+ naive T cells was determined by FACS analysis. 1×10^6 cells/ml of CD4+ naive T cells were differentiated into Th17 cells under Th17 culture condition (CD3/28 beads, 10 ng/ml of IL-1β, 10 ng/ml of IL-6, 10 ng/ml of IL-23 and 1 ng/ml of TGF-β) for 5 days. All cytokines were purchased from Humanzyme. The CD3/28 beads were used according to the manufacturer's instructions (Miltenyi Biotec). Differentiation of Th17 cells was confirmed by the production of IL-17F using ELISA.
Experiments were performed where cyclic peptide no. 2HT AA (SEQ ID NO: 177) was added to the differentiated Th17 cells 30 minutes before the addition of IL-23 cytokine Th17 cells were stimulated for 2 days. Ionomycin (1 μg/ml)/PMA (50 ng/ml) (BD biosciences, San Jose, Calif.) were added to the stimulated cells 4 hours before the collection of media to measure the IL-17F production by ELISA (Catalog #88-7478, eBioscience, San Diego, Calif.). […]
CD4+ naive T cells were negatively enriched using human CD4+ naive T cells enrichment kit (StemCell Technologies, Catalog #19155). The purity of naive T cells was measured by FACS analysis. […]

Structure (SMILES)	inhibitory activity in cell-based DB-Luc assay ([1]; cyclic vs linear peptides)	IC50 ([1]; procedure of Example 29, read-out: IC50, cell-based DB-Luc assay)	IC50 [2]	IC50 ([1]; 50 ng/ml IL-23, 4 hours, read-out: IC50, cell-based STAT3-Luc assay)
CSCC[C@@H]1NC(=O)[C@H](CCCCN)NC(=O)[C@H](C)NC(=O)[C@H](C)NC(=O)[C@H](CS)NC(=O)[C@H](CC(N)=O)NC(=O)[C@H](CCCCN)NC(=O)[C@H](CC(C)C)NC(=O)[C@H](Cc2c[nH]c3ccccc23)NC(=O)[C@H](Cc2ccc(O)cc2)NC(=O)[C@H](CC(=O)O)NC(=O)[C@H](C(C)C)NC(=O)[C@H](Cc2c[nH]c3ccccc23)NC(=O)[C@H]([C@@H](C)O)NC1=O [2HT AA] (cyclo(AAKMTWVDYWLKNC))	did not eliminate the inhibitory activity; also recorded: best inhibitory activity	342 nM	339 nM	
CSCC[C@@H]1NC(=O)[C@H](C)NC(=O)[C@@H](N)CSSC[C@@H](C(=O)O)NC(=O)[C@H](CCCNC(=N)N)NC(=O)CNC(=O)[C@H](Cc2ccc(O)cc2)NC(=O)[C@H](CC(C)C)NC(=O)[C@H](Cc2c[nH]c3ccccc23)NC(=O)[C@H](Cc2ccc(O)cc2)NC(=O)[C@H](CC(=O)O)NC(=O)[C@H](CCC(N)=O)NC(=O)[C@H](Cc2c[nH]c3ccccc23)NC(=O)[C@H]([C@@H](C)O)NC1=O [23.19]				2500 nM
